Laboratory results from patent publication US3993754A (priority 1974, dated 1976).
Read-outs that look alike come from different tables or passages of the source. *1 amine or outer side, *2 acyl side, *3 side chain or, on linkers, in order; H or OH if unused. Where a SMILES comes first, the peptide text is derived from it. Bridges are numbered along the chain shown (N, C = ends). Roman numbers before positions name the chains, in order. [ ]: non-standard residue; d: D form. Actinocin(9to1) = Cc1c2oc3c(C)ccc(C(=O)[*:1])c3nc-2c(C(=O)[*:2])c(N)c1=O; NMeV = CN[C@H](C(=O)O)C(C)C; Sar = CNCC(=O)O

Legend:
[1] = mice
Procedure: Female CF No. 1 (Carworth Farms) mice, 3 months of age, weighing between 27 and 29 grams, were used in each instance in these experiments. For toxicity studies, groups of 15 or 20 mice were given actinomycin D at different levels, either in the nonencapsulated or in the liposome-encapsulated forms. Toxicity of actinomycin D was tested by both intravenous and intraperitoneal injection. Experiments were carried out to test the therapeutic efficacy of the encapsulated actinomycin D against Ehrlich ascites (E. A.) tumor cells in vivo. In Experiment I, mice recieved 20 × 10^6 E.A. cells by intraperitoneal injection. After 5 days, separate groups were treated with one of the following: (1) 0.4 ml of 8 mM calcium chloride, (2) nonencapsulated actinomycin D (0.75 mg/kg), or (3) liposome-encapsulated actinomycin D (0.75 mg/kg). In Experiment II, two groups of 10 mice were similarly inoculated. Treatment of one group was begun after 3 days with 0.5 mg/kg of encapsulated actinomycin D, followed by injection on 4 consecutive days with 0.25 mg/kg. All injections were given intraperitoneally, in a volume of 0.4 ml in Experiment I, 0.2 ml in Experiment II.

[2] = tested on: Ehrlich ascites (E. A.) tumor cells; test: Therapeutic efficacy against Ehrlich ascites tumor cells in vivo (survival time); set-up: species or system mice; conditions: Experiment I: single i.p. treatment 0.75 mg/kg, 5 days after inoculation of 20 × 10^6 E.A. cells; control 7.4 ± 3.11 days
Procedure: Referring to FIG. 1, there is illustrated the therapeutic effect of liposome-encapsulated actinomycin D on the survival of mice bearing E.A. tumor following single treatments given at 5 days after inoculation of 20 × 10^6 E.A. cells. A control is represented by line 11 on the graph, liposome-encapsulated actinomycin D at 0.75 mg/kg represented by line 12 and nonencapsulated actinomycin D at 0.75 mg/kg represented by line 13.
Referring to FIG. 2, there is shown graphically the therapeutic effect of liposome-encapsulated actinomycin D on the survival of mice bearing E.A. tumor with multiple daily treatments starting at day 3 after inoculation with 20 × 10^6 E.A. cells. In FIG. 2, the control is represented by line 14, liposome-encapsulated actinomycin D, first dose 0.50 mg/kg followed by four consecutive injections of 0.25 mg/kg, is represented by line 15. As is readily apparent from the graph, the increase in survival time after mutliple injections of encapsulated actinomycin D was even more impressive: 7.3 ± 2.26 days for the control versus 17.6 ± 2.17 days for the encapsulated actinomycin D. All of the control animals died before the first death occurred in the treatment group. In a separate experiment, it was observed that injection of liposomes prepared with KCl instead of actinomycin D had no effect on survival time.

E.A. cells = test: Light and electron microscopic examination of E.A. tumor cells after treatment; assay type: in vivo, mouse; conditions: 1 mg/kg (2 mg/kg in the first case), 1 hour to 5 days after treatment
Procedure: Electron microscopic studies of tissue cells were also conducted. For the electron microscopic studies, a mouse was inoculated with E.A. cells in the manner described above. Five days after the inoculation, liposomes containing actinomycin D at a concentration of 2 mg/kg were injected intraperitoneally. At intervals of 1, 6, 12 and 24 hours after the liposome injection, 0.2 ml of ascites fluid was aspirated from the mouse abdominal cavity with a syringe. The fluid was centrifuged and the pellet of E.A. cells was fixed and processed for examination in an electron microscope. […] Light and electron microscopic examination of E.A. tumor cells was also carried out 1 hour to 5 days after treatment with liposome-encapsulated and nonencapsulated actinomycin D at a dose of 1 mg/kg. […] There was an increase in lipid droplets, lyosomes and autophagic vacuoles and the ribosomes were clumped into distinct clusters. Fewer dividing cells were seen, at least after 24 hours post-treatment.

With `Cc1c2oc3c(C)ccc(C(=O)N[C@@H]4C(=O)N[C@H](C(C)C)C(=O)N5CCC[C@H]5C(=O)N(C)CC(=O)N(C)[C@@H](C(C)C)C(=O)O[C@@H]4C)c3nc-2c(C(=O)N[C@@H]2C(=O)N[C@H](C(C)C)C(=O)N3CCC[C@H]3C(=O)N(C)CC(=O)N(C)[C@@H](C(C)C)C(=O)O[C@@H]2C)c(N)c1=O` [actinomycin D] (I: T[dV]P[Sar][NMeV] / II: T[dV]P[Sar][NMeV]; ester I:1-I:C, II:1-II:C; linker I:N-II:N via Actinocin(9to1)) the LD50 ([1]; given intravenously) was 0.43 ± 0.04 mg/kg, the LD50 ([1]; intraperitoneal injection) was 0.59 ± 0.17 mg/kg and the “survival of some of the decedents” value ([1]; intraperitoneal injection) was no more than 14 days. The “average survival time of the decedents” value ([1]; intravenous, 0.3 mg/kg) was 3.5 days, the “decedents out of 20 injected” value ([1]; intravenous, 0.3 mg/kg) was 8 and the “time within which most of the deaths occurred” value ([1]; intravenous, doses of 0.5 mg/kg and above) was no more than 24 h. For the same compound, the “survival time after treatment” value [2] was “slightly, but not significantly, less than the controls” and the “morphological damage of E.A. cells” value (E.A. cells) was “Significantly fewer E. A. cells were damaged”.
